The results in this text go back to US12473250B2, “Molecular design of new antibiotics and antibiotic adjuvants against MCR strains” (priority 2019, dated 2025).

For assay [1], the system named is various pathogens. Description: microbe, parasite or virus in culture. Format: cell-based. On the procedure: (§1) The MICs of the individual drugs and LC compound in combinations were determined using the broth microdilution technique as recommended by the CLSI whereby the two anti-microbial agents were added in an equal amount. (e.g.: 50 μL of Colistin: 50 μL of LC compounds). Diluted media containing compounds and antibiotics will be serially diluted 2-fold, and LC compounds and antibiotics alone or in combination will be assayed at fixed synergy concentration. In all cases, the lowest concentration at which no visible growth occurred was be recorded to be the MIC value of individual and combined antibacterial agents. The results were obtained after 24 hours of incubation.
Using the combination of LC100 and colistin, the activity of a broad range of strains was further tested (Table 7).

Assay [2] has as its system colistin resistant MCR (+) E. Coli strains. The assay is described as follows: Synergy study: colistin MIC in the presence of compound. The format is cell-based. Particulars: against mcr-1 bacteria. On the procedure: as §1
Setting [3] is: Escherichia coli, 6083655967 [MCR 1+, E. Coli].
[4] abbreviates: Escherichia coli, 6093560257 [MCR 1+, E. Coli, NDM-1].
The mark [5] stands for this setting: Escherichia coli, 7023446108 [MCR 1−, E. Coli].
The mark [6] stands for this setting: Escherichia coli, 7103531927 [MCR 1+, E. Coli, KPC+].
The mark [7] stands for this setting: Escherichia coli, 7113636863 [MCR 1+, E. Coli, NDM-1].
Where [8] appears, read: Escherichia coli, E. Coli CRE 11804.
Where [9] appears, read: Escherichia coli, E. Coli CRE 17528.
Setting [10] is: Escherichia coli, E. Coli CRE 17232.

With `C[C@@H](O)[C@H]1C(=O)N2C(C(=O)O)=C(S[C@@H]3CN[C@H](CNS(N)(=O)=O)C3)[C@H](C)[C@H]12` [Doripenem], the MIC is below 0.0975 µg/mL in assay [1] (setting [3]); 50 µg/mL in assay [1] (setting [4]); below 0.0975 µg/mL in assay [1] (Escherichia coli, 6123520276 [MCR 1+, E. Coli]); below 0.0975 µg/mL in assay [1] (Escherichia coli, 7023436560 [MCR 1+, E. Coli]); below 0.0975 µg/mL in assay [1] (Escherichia coli, 7023444207 [MCR 1+, E. Coli]); 0.0975 µg/mL in assay [1] (setting [5]). In addition, the MIC in assay [1] (Escherichia coli, 7033607097 [MCR 1−, E. Coli]) is below 0.0975 µg/mL; in assay [1] (setting [6]), 1.56 µg/mL; in assay [1] (setting [7]), 25 µg/mL; in assay [1] (setting [8]) it was above 25 µg/mL; in assay [1] (setting [9]), 1.56 µg/mL; in assay [1] (KLPN CRE 7955), above 25 µg/mL. Moreover, the MIC was above 50 µg/mL in assay [1] (KLPN CRE 16260); 25 µg/mL in assay [1] (KLPN CRE 27025); 1.56 µg/mL in assay [1] (KLPN CRE 55301); 6.25 µg/mL in assay [1] (PAE DM 4150); 0.195 µg/mL in assay [1] (PAE DM 23155); 0.78 µg/mL in assay [1] (PAE DM 23257). Further, the MIC is 0.78 µg/mL in assay [1] (PAE DM 23376); 0.78 µg/mL in assay [1] (PAE DR 4877); 12.5 µg/mL in assay [1] (PAE DR 5790, ¼ MHB); above 25 µg/mL in assay [1] (PAE DU 14476).

`C[C@@H](O)[C@H]1C(=O)N2C(C(=O)O)=C(S[C@@H]3CN[C@H](C(=O)Nc4cccc(C(=O)O)c4)C3)[C@H](C)[C@H]12` [Ertapenem]: the MIC in assay [1] (setting [4]) was 25 µg/mL; in assay [1] (setting [6]), 12.5 µg/mL; in assay [1] (setting [7]), above 50 µg/mL; in assay [1] (setting [8]), 25 µg/mL; in assay [1] (setting [10]), 1.56 µg/mL; in assay [1] (setting [9]), above 25 µg/mL. The MIC is above 25 µg/mL in assay [1] (KLPN CRE 7955); above 50 µg/mL in assay [1] (KLPN CRE 16260); above 25 µg/mL in assay [1] (KLPN CRE 55301); above 25 µg/mL in assay [1] (PAE DM 4150); 12.5 µg/mL in assay [1] (PAE DM 23155); above 25 µg/mL in assay [1] (PAE DM 23257). Further, the MIC in assay [1] (PAE DM 23376), in assay [1] (PAE DR 4877), in assay [1] (PAE DR 5790) and in assay [1] (PAE DU 14476) was above 25 µg/mL each time.

Take `COc1c(N2CCNC(C)C2)c(F)cc2c(=O)c(C(=O)O)cn(C3CC3)c12` (stereo not shown) [Gatifloxacin]: the MIC is 12.5 µg/mL in assay [1] (ACBA 1003 (CI)); 12.5 µg/mL in assay [1] (ACBA 1004 (CI)); 6.25 µg/mL in assay [1] (ACBA 1005 (CI)); 6.25 µg/mL in assay [1] (ACBA 1006 (CI)); below 0.098 µg/mL in assay [1] (ACBA 1010 (CI)); 12.5 µg/mL in assay [1] (setting [3]). In addition, the MIC was 0.78 µg/mL in assay [1] (setting [4]); 3.12 µg/mL in assay [1] (setting [5]); below 0.0975 µg/mL in assay [1] (setting [6]); 50 µg/mL in assay [1] (setting [7]); 0.024 µg/mL in assay [1] (Escherichia coli, ATCC8739, E. Coli ATCC 8739); 0.012 µg/mL in assay [1] (Escherichia coli, ATCC10536, E. Coli ATCC 10536). Further, the MIC was 0.012 µg/mL in assay [1] (Escherichia coli, ATCC25922, E. Coli ATCC 25922); below 0.015 µg/mL in assay [1] (setting [8]); 12.5 µg/mL in assay [1] (setting [10]); 25 µg/mL in assay [1] (setting [9]); 25 µg/mL in assay [1] (Escherichia coli, E. Coli CRE 19211); 0.195 µg/mL in assay [1] (Escherichia coli, E. Coli CRE 34685). For the same molecule, the MIC in assay [1] (KLPN ATCC 4352) was below 0.049 µg/mL; in assay [1] (KLPN ATCC 10031) it was below 0.049 µg/mL; in assay [1] (KLPN ATCC 27736) it was below 0.049 µg/mL; in assay [1] (KLPN CRE 7955), 100 µg/mL; in assay [1] (KLPN CRE 15588), 25 µg/mL; in assay [1] (KLPN CRE 16260), 3.12 µg/mL. Besides, the MIC in assay [1] (KLPN CRE 27025) is 3.12 µg/mL; in assay [1] (KLPN CRE 55301), 25 µg/mL; in assay [1] (PAE ATCC 9027), 0.78 µg/mL; in assay [1] (PAE ATCC 27853) it was 1.56 µg/mL; in assay [1] (PAE DM 23155), 1.56 µg/mL; in assay [1] (PAE DM 23257) it was 0.78 µg/mL. In addition, the MIC in assay [1] (PAE DM 23376) came to 1.56 µg/mL; in assay [1] (PAE DR 4877), 25 µg/mL; in assay [1] (PAE DR 5790), 25 µg/mL; in assay [1] (PAE DU 14476), 25 µg/mL.

With `Cc1cc(OCCCCN(Cc2ccccn2)Cc2ccccn2)cc(OCCCCN(Cc2ccccn2)Cc2ccccn2)c1` [Orc-DPA], in assay [2], the “concentration at which the compound shows synergy with colistin” value is 50 µg/mL.
